Test results taken from patent US8865763B2, “Methods and compositions for altering cell function” (Alltech, Inc., priority 2005, dated 2014).

What was measured:
[1] = test system: transforming growth factor beta 2 (TGF-β2); test: Microarray gene expression, mouse intestine: TGF-β2; format: in vivo; conditions: diet 1 ppm Se, vs controls
Excerpt: (§1) Animal Care. Male C57BL/6J mice were housed singly and started on the experimental diets described below immediately after weaning (21 days of age). The mice were maintained in the Shared Aging Rodent Facility at the William S. Middleton Memorial Veterans Administration Medical Center (Madison, Wis.). Temperature and humidity were maintained at constant levels. Room light was controlled to provide 12-hr cycles of light and dark.
(§2) Experimental diets were created by Harlan Teklad (Madison, Wis.). Selenium content of the diets was determined by Covance Inc. (Madison, Wis.). Five (5) animals were included in each of the following treatment groups: a diet deficient in selenium (SD); a diet supplemented with selenomethionine (SM, obtained from Sigma, St. Louis, Mo.) such that the final selenium content of the diet was one (1) part per million; a diet supplemented with sodium selenite (SS, Sigma) such that the final concentration of selenium in this diet was one (1) part per million; or a diet supplemented with the yeast selenium SEL-PLEX (SP, Alltech, Lexington, Ky.), such that the final concentration of selenium in this diet was one (1) part per million. SEL-PLEX. […]
(§3) Tissue sample preparation and microarray analysis. […] For intestinal expression studies, the intestine was flushed twice with saline solution and small intestine was measured and divided in three equal segments. […]

Glutathione Peroxidase 3 = test: Microarray gene expression, mouse intestine: Glutathione Peroxidase 3; format: in vivo; conditions: diet 1 ppm Se, vs selenium deficient, all p < 0.01
Excerpt: as §1, §2, §3

Prohibitin (Phb) = test: Microarray gene expression, mouse intestine: Phb; format: in vivo; conditions: diet 1 ppm Se, vs selenium deficient
Excerpt: as §1, §2, §3

Glutathione Peroxidase 1 = test: Microarray gene expression, mouse intestine: Glutathione Peroxidase 1; format: in vivo; conditions: diet 1 ppm Se, vs selenium deficient, all p < 0.01
Excerpt: as §1, §2, §3

Neurogenin 3 (Neurog3) = test: Microarray gene expression, mouse intestine: Neurog3; format: in vivo; conditions: diet 1 ppm Se, vs selenium deficient
Excerpt: as §1, §2, §3

Selenoprotein W (SelW) = test: Microarray gene expression, mouse intestine: SelW; format: in vivo; conditions: diet 1 ppm Se, vs selenium deficient
Excerpt: as §1, §2, §3

[2] = test system: type II iodothyronine deiodinase (Dio2); test: Microarray gene expression, mouse intestine: Dio2; format: in vivo; conditions: diet 1 ppm Se, vs selenium deficient
Excerpt: as §1, §2, §3

CORS-26 = test: Microarray gene expression, mouse cerebral cortex: CORS-26; format: in vivo; conditions: diet 1 ppm Se, vs selenium deficient
Excerpt: as §1, §2, §3

[3] = test system: Complement component 1, q subcomponent, gamma polypeptide, C1qg; test: Microarray gene expression, mouse cerebral cortex: C1qg; format: in vivo; conditions: diet 1 ppm Se, vs selenium deficient, * p<0.01
Excerpt: as §1, §2, §3

[4] = test system: Type 1 iodothyronine deiodinase; test: Microarray gene expression, mouse intestine: Type 1 iodothyronine deiodinase; format: in vivo; conditions: diet 1 ppm Se, vs selenium deficient
Excerpt: as §1, §2, §3

Glyoxalase 1 (Glo1) = test: Microarray gene expression, mouse intestine: Glo1; format: in vivo; conditions: diet 1 ppm Se, vs selenium deficient
Excerpt: as §1, §2, §3

[5] = test system: sprouty homolog 2 gene (Spry2); test: Microarray gene expression, mouse intestine: Spry2; format: in vivo; conditions: diet 1 ppm Se, vs Se-deficient controls
Excerpt: as §1, §2, §3

SelR (Selenoprotein X1) = test: Microarray gene expression, mouse intestine: SelR; format: in vivo; conditions: diet 1 ppm Se, vs selenium deficient
Excerpt: as §1, §2, §3

selenoprotein N1 (Sepn1) = test: Microarray gene expression, mouse intestine: Sepn1; format: in vivo; conditions: diet 1 ppm Se, vs selenium deficient
Excerpt: as §1, §2, §3

[6] = Body weight of mice on selenium diets; format: in vivo, mouse; conditions: mouse, in vivo
Excerpt: as §1
Experimental diets were created by Harlan Teklad (Madison, Wis.). Selenium content of the diets was determined by Covance Inc. (Madison, Wis.). […]
Thus, it was an object of the present invention to determine whether compositions and methods of the present invention could alter the expression levels (e.g., mRNA levels) of various genes. One group of genes analyzed were genes classically associated with selenium. As described above, the expression levels of genes were analyzed between mice with and without dietary selenium, or, between mice fed different sources of selenium) (See, e.g., Table 1, below).

[7] = test system: Growth arrest and DNA-damage-inducible 45 gamma (Gadd45g); test: Microarray gene expression, mouse intestine: Gadd45g; format: in vivo; conditions: diet 1 ppm Se, vs selenium deficient, negative = down
Excerpt: as §1
Experimental diets were created by Harlan Teklad (Madison, Wis.). Selenium content of the diets was determined by Covance Inc. (Madison, Wis.). Five (5) animals were included in each of the following treatment groups: a diet deficient in selenium (SD); a diet supplemented with selenomethionine (SM, obtained from Sigma, St. Louis, Mo.) such that the final selenium content of the diet was one (1) part per million; a diet supplemented with sodium selenite (SS, Sigma) such that the final concentration of selenium in this diet was one (1) part per million; or a diet supplemented with the yeast selenium SEL-PLEX (SP, Alltech, Lexington, Ky.), such that the final concentration of selenium in this diet was one (1) part per million. SEL-PLEX. Mice were provided with water and their respective diet ad libitum for 100 days. Diets were stored at the dark at 4° C. and fresh diet was added to feeder twice weekly.
Tissue sample preparation and microarray analysis. Mice were killed at 100 days of age by cervical dislocation. For intestinal expression studies, the intestine was flushed twice with saline solution and small intestine was measured and divided in three equal segments. A 3-cm region of the middle segment of the small intestine corresponding to the jejunum (˜300 mg of tissue) was cut and rinsed again with physiological saline to completely remove contents, flash frozen in liquid nitrogen and stored at −80° C. For brain (e.g., cerebral cortex) studies, the cerebral cortex was separated from the surrounding brain tissue and was flash frozen in liquid nitrogen and stored at −80° C. […]

[8] = test system: LIM homeobox protein 8 gene (Lhx8); test: Microarray gene expression, mouse intestine: Lhx8; format: in vivo; conditions: diet 1 ppm Se, vs selenium deficient
Excerpt: as §1, §2, §3

expression of Glo1, fold reduction (Glyoxalase 1 (Glo1)): not significantly affected
Compound: C[Se]CC[C@H](N)C(=O)O [SeM, selenomethionine]
expression of TGF-β2 (printed TGF-β), fold upregulated [1]: not altered
fold change in expression of Glutathione Peroxidase 3 (Glutathione Peroxidase 3): 4.6 fold
expression of Prohibitin (Phb), fold upregulated (Prohibitin (Phb)): 1.6 fold
fold change in expression of Glutathione Peroxidase 1 (Glutathione Peroxidase 1): 4.9 fold
Neurog3 expression, fold upregulated (Neurogenin 3 (Neurog3)): no significant alteration
expression of Selenoprotein W (SelW), fold upregulated (Selenoprotein W (SelW)): not significantly altered
expression of Dio2, fold down-regulation [2]: no ability to alter the expression levels
expression of CORS-26, fold reduction (CORS-26): no alteration in expression levels
FC (fold change) expression of C1qg [3]: 1.0 fold
fold increase of expression level of Type 1 iodothyronine deiodinase [4]: 2.0 fold
Spry2 gene expression, fold reduction [5]: no alteration in expression levels
expression of SelR, fold upregulated (SelR (Selenoprotein X1)): not significantly affected
expression of selenoprotein N1 (Sepn1), fold increased (selenoprotein N1 (Sepn1)): not significantly affected
body weights of mice [6]: No significant differences
FC (fold change) expression of Gadd45g [7]: decreased expression
FC (fold change) expression of Gadd45g ([7]; listed as SM): −1.5 fold
expression of Lhx8, fold upregulated [8]: not significantly different
